The structures appear in SMILES notation. Bounds are passed on as bounds.

The target of the first data set is T1, HSP90α (Homo sapiens, UniProt P07900).
T1 construct: purchased Stressgen Lot B506492
The data set is described as follows: HSP90 binding assay (fluorescent ELISA, competition with biotinylated Geldanamycin). The conditions noted are these: reported as range of IC50's. The protocol:
The biochemical assay is described as follows.
Purified HSP90α […] was purchased from Stressgen Lot B506492. Single use aliquots of the 1.15 mg/ml stock were prepared and stored at −80° C. to avoid multiple freeze-thaw cycles.
A Nunc Maxisorb plate was coated overnight at 4° C. with 200 ng of HSP90/well dissolved in DPBS. The following day the plates were washed with TBST and blocked for 2 h at room temperature with blocking buffer (20 mM HEPES pH 7.3, 1 mM EDTA, 5 mM MgCl2, 100 mM KCl, 5% BSA). Blocking buffer was removed by washing plates with TBST, and test compounds dissolved in assay buffer (20 mM HEPES pH 7.3, 1 mM EDTA, 5 mM MgCl2, 100 mM KCl, 1% BSA) were added to plate. […] The reaction is incubated for 60 minutes at room temperature. […] Competitive inhibitory compounds will block this interaction from occurring.
The reactions were stopped by washing the plate with TBST. The binding of the bio-GM is detected by the addition of an Alkaline Phosphatase tagged Streptavidin molecule. A TBST wash eliminates any unbound detection agent, and the Alkaline Phosphate substrate Attophos is introduced. This substrate generates a fluorescent signal at […] when excited at […]. These plates can be monitored on either a Victor 5 or Perkin Elmer Envision multilabel reader.
Background: ELISA stands for enzyme-linked immunosorbent assay.
Usually IC50 stands for the midpoint of a concentration-inhibition curve. `COCCCn1nnnc1-c1cc(-c2cccc(C(F)(F)F)c2)c(O)cc1O` [Compound 7, 5-[1-(3-methoxy-propyl)-1H-tetrazol-5-yl]-3′-trifluoromethyl-biphenyl-2,4-diol] displayed a 50% inhibitory concentration (IC50) of 10 to 50 µM.

On to `COCCCn1nnnc1-c1cc(-c2cc(C(C)C)ccc2OC)c(O)cc1O` [Compound 16, 5′-isopropyl-2′-methoxy-5-[1-(3-methoxy-propyl)-1H-tetrazol-5-yl]-biphenyl-2,4-diol], for which the IC50 lay in the range of 1 to 10 µM.

Molecule `COc1ccc(C(C)C)cc1-c1cc(-c2nnnn2CCc2ccccc2)c(O)cc1O` [Compound 26, 5′-isopropyl-2′-methoxy-5-(1-phenethyl-1H-tetrazol-5-yl)-biphenyl-2,4-diol] registered a half-inhibitory concentration (IC50) of 10 to 50 µM.

With `COCCCn1nnnc1-c1cc(-c2cccc(C(=O)N(C)CCCN(C)C)c2)c(O)cc1O` [Compound 64, 2′,4′-Dihydroxy-5′-[1-(3-methoxy-propyl)-1H-tetrazol-5-yl]-biphenyl-3-carboxylic Acid (3-dimethylamino-propyl)-methyl-amide], the concentration for half-maximal inhibition (IC50) was > 50 µM.

Consider `COCCCn1nnnc1-c1cc(-c2ccc(Oc3ccccc3)cc2)c(O)cc1O` [Compound 74, 5-[1-(3-Methoxy-propyl)-1H-tetrazol-5-yl]-4′-phenoxy-biphenyl-2,4-diol], for which the IC50 is > 50 µM.

Take `COCCCn1nnnc1-c1cc(-c2cccc(C)c2)c(O)cc1O` [Compound 8, 5-[1-(3-Methoxy-propyl)-1H-tetrazol-5-yl]-3′-methyl-biphenyl-2,4-diol]: the IC50 fell in the range of 10 to 50 µM.

As for `COCCCn1nnnc1-c1cc(-c2cccc(C(=O)NCCCN(C)C)c2)c(O)cc1O` [Compound 65], the 50% inhibitory concentration (IC50) was > 50 µM.

For the molecule `CCCCn1nnnc1-c1cc(-c2cccc(C(=O)N3CCN(CCCN4CCOCC4)CC3)c2)c(O)cc1O` [Compound 56, [5′-(1-Butyl-1H-tetrazol-5-yl)-2′,4′-dihydroxy-biphenyl-3-yl]-[4-(3-morpholin-4-ylpropyl)-piperazin-1-yl]-methanone], the IC50 was > 50 µM.

With `COCCCn1nnnc1-c1cc(-c2cccc(C(=O)NCCCN3CCOCC3)c2)c(O)cc1O` [Compound 67, 2′,4′-Dihydroxy-5′-[1-(3-methoxy-propyl)-1H-tetrazol-5-yl]-biphenyl-3-carboxylic Acid (3-morpholin-4-yl-propyl)-amide], the IC50 was > 50 µM.

With `CCCCn1nnnc1-c1cc(-c2cccc(C(=O)NCCc3cccc(OC)c3)c2)c(O)cc1O` [Compound 57], the IC50 is > 50 µM.

As to `COc1ccc(C(C)C)cc1-c1cc(-c2nnnn2C2CCN(C(=O)CC(C)C)CC2)c(O)cc1O` [Compound 40, 1-{4-[5-(4,6-Dihydroxy-5′-isopropyl-2′-methoxy-biphenyl-3-yl)-tetrazol-1yl]-piperidin-1-yl}-3-methyl-butan-1-one], the IC50 lay in the range of 10 to 50 µM.

Regarding `CCCCn1nnnc1-c1cc(-c2cccc(C(=O)NCCCN3CCOCC3)c2)c(O)cc1O` [Compound 54], the half-inhibitory concentration (IC50) was > 50 µM.

In turn, `COCCCn1nnnc1-c1cc(-c2cccc(C(=O)OC)c2)c(O)cc1O` [Compound 21] gave a 50% inhibitory concentration (IC50) of 10 to 50 µM.

Turning to `COCCn1nnnc1-c1cc(-c2cc(C(F)(F)F)ccc2F)c(O)cc1O` [Compound 10, 2′-Fluoro-5-[1-(2-methoxy-ethyl)-1H-tetrazol-5-yl]-5′-trifluoromethyl-biphenyl-2,4-diol], the IC50 is > 50 µM.

For the molecule `COc1ccc(C(C)C)cc1-c1cc(-c2nnnn2C2CCN(C(=O)OC(C)(C)C)CC2)c(O)cc1O` [Compound 43], the IC50 lay within 10 to 50 µM.

Molecule `CCCCn1nnnc1-c1cc(-c2cccc(C(=O)OC)c2)c(O)cc1O` [Compound 22] displayed an IC50 of 10 to 50 µM.

In the case of `COCCCn1nnnc1-c1cc(-c2cccc(C(=O)NC(C)CN(C)C)c2)c(O)cc1O` (centres unmarked) [Compound 70, 2′,4′-Dihydroxy-5′-[1-(3-methoxy-propyl)-1H-tetrazol-5-yl]-biphenyl-3-carboxylic acid (2-dimethylamino-1-methyl-ethyl)-amide], the IC50 was > 50 µM.

Consider `COCCCn1nnnc1-c1cc(-c2ccc(OC(F)(F)F)cc2)c(O)cc1O` [Compound 73], for which the 50% inhibitory concentration (IC50) was > 50 µM.

Take `CCCCn1nnnc1-c1cc(-c2cccc(C(=O)N3CCN(CC)CC3)c2)c(O)cc1O` [Compound 50]: the IC50 was > 50 µM.

Consider `COCCCn1nnnc1-c1cc(-c2cccc(C(=O)N3CCN(CC4CCN(C)CC4)CC3)c2)c(O)cc1O` [Compound 69], for which the IC50 was > 50 µM.

In the next data set the test system is SK-BR-3. The data set is described as follows: MTS assay (cell viability). It is filed as cell-based. The conditions noted are these: Homo sapiens; SK-BR-3 cells, 72 hours with compound, 50% reduction in number of viable cells; read-out: IC50'S(SK-BR-3). The protocol: The anti-proliferative effects of biochemically active compounds were measured utilizing the MTS assay. The generalized procedure is describes as follows:
The cells are then trypsinized and re-plated in 96 well sterile cell culture plates in 130 μl/well growth media at a density that allows confluency of approximately 50% after 72 hours of growth. These starting densities vary across cell lines based on individual doubling times. The day following plating, the cell was treated with an appropriate concentration of compound diluted in DMSO. Cell plates were allowed to grow undisturbed at 37° C., 5% CO2 for 72 h. After 72 hours, 30 μl of a solution of 0.046 mg/ml Phemazine methosulfate (PMS) (Fluka product 68600) and 1.9 mg/ml MTS reagent ([3-(4,5-dimethylthiazol-2-yl)-5-(3 carboxymethoxyphenyl)-2-(4-sulfophenyl)-2H-tetrazolium, inner salt (Promega product G1111) is added directly to the well. Plate is re-incubated at 37° C., 5% CO2 for 4 hr. Plates were then read on the Perkin Elmer Envision to determine absorbance at 490 nm.
Cell viability was determined by measuring the activity of dehydrogenase enzymes in metabolically active cells using a tetrazolium compound, MTS. The assay was performed as described in Promega Technical Bulletin No. 169 (CellTiter 96 Aqueous Non-Radioactive Cell Proliferation Assay). Ten human cancer cell lines were assayed (see, e.g. Table 1). Cells were maintained at 37° C. and 5% CO2 in DMEM media (4.5 g/L glucose) supplemented with 10% heat-inactivated FBS, 10 mM L-glutamine, and 10 mM Hepes pH 7.5. Briefly, cells were seeded in 96-well plates as set forth in Table 1 and incubated for 16-24 hours. Candidate compounds were serially diluted in DMSO, further diluted in cell culture media, and then added to cells (final DMSO concentration of 0.33%). Cells were incubated in the presence of candidate compound for 72 hours. MTS stock solution (MTS 2 gm/L, PMS […] in PBS) was added to the cells (final concentration MTS […] and PMS 7.67 mg/L) and incubated for 4 hours. SDS was added to a final concentration of 1.4% and absorbance at 490 nm was measured within two hours using a plate reader. The IC50 was defined as the concentration of compound that results in a 50% reduction in the number of viable cells as compared to control wells treated with DMSO only (0.33%) and was calculated using non-linear regression analysis. IC50 values were given in Table 3 for the compounds listed.
`COCCCn1nnnc1-c1cc(-c2cccc(C(F)(F)F)c2)c(O)cc1O` [Compound 7, 5-[1-(3-methoxy-propyl)-1H-tetrazol-5-yl]-3′-trifluoromethyl-biphenyl-2,4-diol]: the IC50 came out at 15.3 µM.

With `COc1ccc(C(C)C)cc1-c1cc(-c2nnnn2C(C)C)c(O)cc1O` [Compound 110], the 50% inhibitory concentration (IC50) turned out to be 1.58 µM.

Take `COc1ccc(C(C)C)cc1-c1cc(-c2nnnn2C2CCC2)c(O)cc1O` [Compound 108, 5-(1-Cyclobutyl-1H-tetrazol-5-yl)-5′-isopropyl-2′-methoxy-biphenyl-2,4-diol]: the 50% inhibitory concentration (IC50) turned out to be 13.7 µM.

With `COc1ccc(C(C)C)cc1-c1cc(-c2nnnn2CCCOC(C)C)c(O)cc1O` [Compound 99, 5-[1-(3-Isopropoxy-propyl)-1H-tetrazol-5-yl]-5′-isopropyl-2′-methoxy-biphenyl-2,4-diol], the IC50 was found to be 13.5 µM.

As to `COc1ccc(C(C)C)cc1-c1cc(-c2nnnn2CCCc2ccccc2)c(O)cc1O` [Compound 100], the IC50 came out at 3.22 µM.

System in another data set: not given
Assay: not given
Settings: not given
By melting point is commonly meant the temperature, or range, at which the solid turns liquid. In turn, `COCCCn1nnnc1-c1cc(-c2cccc(C(F)(F)F)c2)c(O)cc1O` [Compound 7, 5-[1-(3-methoxy-propyl)-1H-tetrazol-5-yl]-3′-trifluoromethyl-biphenyl-2,4-diol] displayed a melting point of 144 to 182 °C.

`COCCCn1nnnc1-c1cc(-c2cc(C(C)C)ccc2OC)c(O)cc1O` [Compound 16, 5′-isopropyl-2′-methoxy-5-[1-(3-methoxy-propyl)-1H-tetrazol-5-yl]-biphenyl-2,4-diol] registered a melting point of 174 to 176 °C.

As for `COc1ccc(C(C)C)cc1-c1cc(-c2nnnn2CCc2ccccc2)c(O)cc1O` [Compound 26, 5′-isopropyl-2′-methoxy-5-(1-phenethyl-1H-tetrazol-5-yl)-biphenyl-2,4-diol], the melting point was in the range of 206 to 209 °C.

System in the next data set: not given
Assay: not given
The conditions noted are these: aqueous solution; cited from earlier work.
In the case of `C=CCNC1=C2C[C@@H](C)C[C@H](OC)[C@H](O)[C@@H](C)/C=C(\C)[C@H](OC(N)=O)[C@@H](OC)/C=C\C=C(/C)C(=O)NC(=CC1=O)C2=O` [Compound 17-AAG, 17-Allylamino-17-demethoxygeldanamycin], the solubility result was “low solubility”.

With `COC1=C2C[C@@H](C)C[C@H](OC)[C@H](O)[C@@H](C)/C=C(\C)[C@H](OC(N)=O)[C@@H](OC)/C=C\C=C(/C)C(=O)NC(=CC1=O)C2=O` [geldanamycin], the solubility entry is “poorly soluble”.

For the molecule `CO[C@H]1/C=C\C=C(/C)C(=O)NC2=CC(=O)C(NCCN(C)C)=C(C[C@@H](C)C[C@H](OC)[C@H](O)[C@@H](C)/C=C(\C)[C@@H]1OC(N)=O)C2=O` [DMAG, 17-Dimethylaminoethylamino-17-demethoxygeldanamycin], the solubility result is reported as “low solubility”.

System in the next data set: not given
Assay: not given
To be noted: clinical trials; cited from earlier work.
For the molecule `COC1=C2C[C@@H](C)C[C@H](OC)[C@H](O)[C@@H](C)/C=C(\C)[C@H](OC(N)=O)[C@@H](OC)/C=C\C=C(/C)C(=O)NC(=CC1=O)C2=O` [geldanamycin], the hepatotoxicity result is given as “hepatotoxicity proved problematic”.

These data come from US7932279B2 (ArQule, Inc., priority 2007, dated 2011).
